# “Also recorded” adds a separate entry of the source.
# Legend:
# [1] = tested on: HCT116-CACO2 ringed constructs; experiment: Ringed organoid drug screening, live-dead stain; assay type: cell-based; conditions: for % dead: % live ratio: drug day 5, stain day 7; for cell type targeted in ringed construct (live-dead images): inner HCT116 versus outer CACO2, day 7
# Experimental: Polydimethylsiloxane, or PDMS, was again used to coat the bottom of the wells. HCT116 cells were embedded within hyaluronan hydrogel and constructs were created on the PDMS surface. CACO2 cells that were also embedded within hyaluronan gel were used to create the outer ring around the HCT116 inner-ring construct (FIG. 9, panel A).
# A live-dead stain was carried out on the ringed-constructs on day 7 and imaged on an Axiovert microscope (FIG. 9, panel B). The imaging software, MATLAB, was used to generate a % dead: % live ratio (or % red (medium grey in black and white images): % green (light grey in black and white images)) for the ringed-constructs. The values were then graphed showing the ratios for each of the concentrations of Regorafenib and 5-FU and against the control, untreated ratio (FIG. 9, panel C). At 100 μM, Regorafenib and 5-FU both have % dead: % live ratios of 0.98. This means that approximately half of the HCT116 and CACO2 cells are alive and half have been targeted by the anticancer drugs. When analyzing the relative cellular viability when the 1 μM and 10 μM concentrations of Regorafenib and 5-FU were administered, the % dead: % live ratios are much greater for the 5-FU solutions than for the Regorafenib solutions. At 1 μM, the % dead: % live ratio is 0.95 for 5-FU as opposed to 0.48 for Regorafenib, and at 10 μM, the % dead: % live ratio is 0.78 for 5-FU as opposed to 0.08 for Regorafenib. The % dead: % live ratios for the three concentrations of Regorafenib and 5-FU were substantially higher than the control % dead: % live ratio value of only 0.03.
# Hydrogel Components of the Ringed Organoid Constructs: The hyaluronic acid-based hydrogel used in making the ringed organoids was a mixture of four components: Heprasil, Gelin-S, and PEGDA 2-ARM Acrylate crosslinker (Extralink), and Alkyne-PEG-Alkyne 2-ARM crosslinker (ESI BIO, California, USA). These components were mixed in a 4:4:1:1 ratio by volume. 0.1% Irgacure photoinitiator was added to each of the four components prior to their mixture and the […] were placed in a 37° C. incubator for a ˜30 minutes to solubilize. HCT116 and CACO2 cells were isolated in the passaging method previously mentioned and PDMS was used to coat the bottom of the 96-well plates.
# Forming Ringed-Organoid Constructs: The four components of the hydrogel were added to the 15 mL centrifuge tube containing the HCT116 cell pellet and the cells were resuspended within the mixture. 10 μL of the HCT116 containing hydrogel were placed in the center of the wells and left untouched with aluminum foil covering the 96-well plates for ˜35 minutes. During this time, the PEGDA 2-ARM Acrylate will crosslink the gel, while the UV-sensitive 2-ARM Alkyne-PEG-Alkyne will remain uncrosslinked.
# While waiting for the PEGDA to crosslink, add the four hydrogel components to the 15 mL centrifuge tube containing the isolated CACO2 cells and resuspend the cells within the gel. Remove the aluminum foil wrapping on the 96-well plate and inspect the construct to see if they have solidified yet. If so, take 25 μL of the CACO2-embedded-hydrogel and carefully place in the area around the HCT116 construct. Use the pipette tip to physically move the CACO2 gel around the construct on all sides. Use UV light from BlueWave 200 spot light to crosslink both gels together to form a fused, ringed-construct. Add DMEM-10 media to fill up the wells.
# Anticancer Drug Screening: On day 5, 1 μM, 10 μM, and 100 μM drug solutions of 5-FU were added to ringed constructs and 1 μM, 10 μM, and 100 μM drug solutions of Regorafenib were added to separate ringed constructs. Three duplicates were generated for each of the drug concentrations and a no-drug control was maintained as well.
# Live-Dead Staining and Microscopy: On day 7, the ringed-constructs underwent a Live-Dead stain and the construct were imaged on an Axiovert 200M 487-1 microscope (Carl Zeiss AG, Oberkochen, Germany). […]
# HCT116 cells = experiment: 3D hyaluronan-based hydrogel construct drug screen, MTS assay; conditions: Homo sapiens, HCT-116, 3D, read-out: percent relative cell viability (MTS, relative to control)
# Experimental: Polydimethylsiloxane, or PDMS, was used to coat the bottom of the wells. Cells were embedded within the hyaluronan-based hydrogel and were given 5 days to acclimate to their three-dimensional environment and on day 5 were administered different anticancer drug solutions (FIG. 7, panel A). […], Dabrafenib had greater efficacy in targeting the HCT116 and SW480 cell lines, which had relative cellular viability values of 38% and 43%, as opposed to the HT29 and CACO2 cell lines, which had higher cell viability values of 93% and 75%. […]
# Well Coating with PDMS and Cell Isolation: Polydimethylsiloxane, or PDMS, (DOW Corning, North Carolina, USA) was used at a 1:10 curing agent ratio to coat the bottom of the 96-well plates and the plates were then placed in a 80° C. oven for at least one hour. Cells were passaged in the same methods previously mentioned (A) with the desire to place 10 μL 3D hyaluronan-based hydrogel constructs containing 100,000 cells each ([…]) into the wells of a 96-wells plate for all four colorectal cancer cell types. Depending on the cell count, a desired number of cells were isolated in new 15 mL centrifuge tubes as cell-media solution and underwent centrifugation.
# Hydrogel Components of the Single-Cell Type Constructs: The hyaluronic acid-based hydrogel (ESI BIO, California, USA) was produced using a mixture of three components: Heprasil, Gelin-S, and Extralink PEGDA 2-ARM Acrylate crosslinker. These components were mixed in a 2:2:1 ratio by volume. 0.1% Irgacure photoinitiator (Sigma-Aldrich, Missouri, USA) was added to each of the three components prior to their mixture and the three components were placed in a 37° C. incubator for a ˜30 minutes to solubilize.
# Forming Organoid Constructs: Once solubilized, the media was aspirated from the 15 mL centrifuge tube (post-centrifugation) and the cells were isolated as a pellet. The hydrogel components were added directly into the centrifuge tube containing the cells and the cells were carefully resuspended in the mixture. 10 μL of the gel-cell solution was placed in the center of the wells on the PDMS coating. This was continued for all wells containing cells and was repeated for each cell type. After this point, the gel can be exposed to UV light from a BlueWave 200 spot light (Dymax, Connecticut, USA) to solidify the hydrogel, or one can wait ˜30 minutes for the gel to form on its own. DMEM-10 media was then placed in the wells and the constructs were incubated for 5 days.
# Anticancer Drug Screening and Cell Viability: The same five anticancer drugs were added on Day 5 and the cell viability assay occurred on Day 7.
SMILES,% dead: % live ratio ([1]; 1 μM),% dead: % live ratio ([1]; 10 μM),% dead: % live ratio ([1]; 100 μM),cell type targeted in ringed construct (live-dead images) [1],"viability at 10000 µM (HCT116 cells; 10 mM, HCT116)","viability at 100000 µM (HCT116 cells; 100 mM, HCT116)","viability at 100 µM (HCT116 cells; 100 μM, HCT116, drug day 5, assay day 7)"
"O=c1[nH]cc(F)c(=O)[nH]1 [5-FU, 5-Fluorouracil]",0.95,0.78,0.98,targeting both cell types to similar degrees; also recorded: universal cell death of both HCT116 and CACO2,18%,81%,–
CNC(=O)c1cc(Oc2ccc(NC(=O)Nc3ccc(Cl)c(C(F)(F)F)c3)c(F)c2)ccn1 [Regorafenib],0.48,0.08,0.98,inner HCT116 cells were affected by Regorafenib to a greater extent than the CACO2 cells; also recorded: targeted cell death of HCT116,–,–,< 25%

# Reference: patent US20190187129A1, “CANCER MODELING PLATFORMS AND METHODS OF USING THE SAME” (Wake Forest University Health Sciences, priority 2016, published 2019)
